Results as given in US12502434B2, “Compound comprising EZH2 inhibitor and E3 ligase binder and pharmaceutical composition for preventing or treating EZH2-associated disease comprising same as active ingredient” (DAEGU-GYEONGBUK MEDICAL INNOVATION FOUNDATION, priority 2019, dated 2025).
Where two headings read alike, the source gives them in different places.

Target: T1, EZH2 protein in LS174T cells (Homo sapiens, UniProt Q15910)
T1 construct: endogenous in cells; host or cells: LS174T
Assay: Proteolytic effect in colorectal cancer cells (Western blotting)
Format: cell-based
Conditions: for EZH2 proteolytic effect by Western blotting (figure, in words): FIGS. 1 to 5
Description: After 72 hours of the treatment, the cells were collected and lysed using RIPA buffer (50 mM Tris, pH 7.5, 150 mM NaCl, 1% Triton X-100, 0.1% SDS, […], 0.5% deoxycholate, and protease inhibitor cocktail), followed by sonication (30 sec on/30 sec off, 5 cycles) to prepare a cell lysate.

[1] = EZH2 protein, LS174T cells, 1 μM, 72 hours
[2] = EZH2 protein, LS174T cells, 1 uM, 72 hours, Western blotting

T1 sequence (Q15910 whole entry): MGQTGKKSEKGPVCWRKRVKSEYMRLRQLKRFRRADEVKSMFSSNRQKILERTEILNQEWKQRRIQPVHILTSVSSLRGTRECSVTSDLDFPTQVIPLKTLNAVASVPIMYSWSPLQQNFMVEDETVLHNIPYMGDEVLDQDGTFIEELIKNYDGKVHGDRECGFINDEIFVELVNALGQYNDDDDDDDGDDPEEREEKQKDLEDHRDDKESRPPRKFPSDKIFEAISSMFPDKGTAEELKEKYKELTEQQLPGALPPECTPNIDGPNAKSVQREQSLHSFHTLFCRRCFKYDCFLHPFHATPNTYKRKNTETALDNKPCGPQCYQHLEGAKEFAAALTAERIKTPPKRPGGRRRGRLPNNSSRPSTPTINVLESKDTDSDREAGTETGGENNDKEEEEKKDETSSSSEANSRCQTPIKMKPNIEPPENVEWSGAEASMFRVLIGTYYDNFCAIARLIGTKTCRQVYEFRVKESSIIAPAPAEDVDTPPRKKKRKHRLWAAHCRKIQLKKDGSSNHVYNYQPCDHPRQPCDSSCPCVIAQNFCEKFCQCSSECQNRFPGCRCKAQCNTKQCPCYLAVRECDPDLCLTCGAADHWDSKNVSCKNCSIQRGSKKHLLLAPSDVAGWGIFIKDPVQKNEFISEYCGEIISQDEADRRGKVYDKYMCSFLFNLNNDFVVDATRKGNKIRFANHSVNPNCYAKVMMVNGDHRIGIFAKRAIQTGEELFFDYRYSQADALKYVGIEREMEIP
T1 sequence (O75530 whole entry partner): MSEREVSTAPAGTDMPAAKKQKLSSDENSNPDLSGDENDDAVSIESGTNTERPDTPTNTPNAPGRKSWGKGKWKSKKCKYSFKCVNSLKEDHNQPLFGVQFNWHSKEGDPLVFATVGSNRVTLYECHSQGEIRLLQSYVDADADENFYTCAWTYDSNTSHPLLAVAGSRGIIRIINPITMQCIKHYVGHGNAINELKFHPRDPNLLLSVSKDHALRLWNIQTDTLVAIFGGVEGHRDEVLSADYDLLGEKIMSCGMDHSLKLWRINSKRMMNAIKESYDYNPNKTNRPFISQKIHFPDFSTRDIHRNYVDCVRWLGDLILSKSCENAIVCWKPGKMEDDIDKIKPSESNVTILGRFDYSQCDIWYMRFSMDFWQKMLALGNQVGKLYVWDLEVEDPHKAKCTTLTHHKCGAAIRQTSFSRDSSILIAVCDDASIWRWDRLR
T1 sequence (Q15022 whole entry partner): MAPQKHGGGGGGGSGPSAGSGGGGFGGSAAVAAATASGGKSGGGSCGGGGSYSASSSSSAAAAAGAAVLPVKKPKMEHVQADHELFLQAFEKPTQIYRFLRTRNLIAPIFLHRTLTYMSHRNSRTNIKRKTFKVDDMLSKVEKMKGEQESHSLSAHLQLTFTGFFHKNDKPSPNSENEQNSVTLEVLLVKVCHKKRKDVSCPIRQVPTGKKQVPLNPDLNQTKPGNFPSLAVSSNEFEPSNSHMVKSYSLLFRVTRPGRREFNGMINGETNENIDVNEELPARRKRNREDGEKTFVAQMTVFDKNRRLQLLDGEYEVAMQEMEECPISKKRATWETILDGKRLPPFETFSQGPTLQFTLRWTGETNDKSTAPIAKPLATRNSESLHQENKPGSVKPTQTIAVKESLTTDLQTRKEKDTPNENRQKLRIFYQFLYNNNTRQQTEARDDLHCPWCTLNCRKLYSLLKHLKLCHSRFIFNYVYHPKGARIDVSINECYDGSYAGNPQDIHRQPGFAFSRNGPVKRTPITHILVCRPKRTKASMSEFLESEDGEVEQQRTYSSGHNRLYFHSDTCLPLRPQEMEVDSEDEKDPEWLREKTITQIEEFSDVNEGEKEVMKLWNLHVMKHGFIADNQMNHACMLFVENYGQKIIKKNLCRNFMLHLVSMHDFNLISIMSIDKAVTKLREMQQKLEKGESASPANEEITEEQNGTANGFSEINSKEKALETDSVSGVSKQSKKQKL

Compound	%, degradation at 1 uM [%]	Grade (percent value of the protein degradation when treated with 1 μM)	Grade (percent value of the protein degradation when treated with 1 μM) [1]	%, degradation at 1 uM [2] [%]	EZH2 proteolytic effect by Western blotting (figure, in words)	effect of degrading EZH2 protein when treated to colorectal cancer cells (in words) (LS174T cells)
CCN(c1cc(-c2ccc(CN3CCN(CC(=O)NCCCCCCNc4cccc5c4CN(C4CCC(=O)NC4=O)C5=O)CC3)cc2)cc(C(=O)NCc2c(C)cc(C)[nH]c2=O)c1C)C1CCOCC1 (centres unmarked) [Example 20, N-((4,6-dimethyl-2-oxo-1,2-dihydropyridine-3-yl)methyl)-4′-((4-(2-((6-((2-(2,6-dioxopiperidine-3-yl)-1-oxoisoindoline-4-yl)amino)hexyl)amino)-2-oxoethyl)piperazine-1-yl)methyl)-5-(ethyl(tetrahydro-2H-pyran-4-yl)amino)-4-methyl[1,1′-biphenyl]-3-carboxamide]	58.73	B (key: A: >75%; B: 50-75%; C: 25-50%; D: <25%)				
CCN(c1cc(-c2ccc(CN3CCN(CC(=O)NCCCCCCNc4cccc5c4C(=O)N(C4CCC(=O)NC4=O)C5=O)CC3)cc2)cc(C(=O)NCc2c(C)cc(C)[nH]c2=O)c1C)C1CCOCC1 (centres unmarked) [Example 6, N-((4,6-dimethyl-2-oxo-1,2-dihydropyridine-3-yl)methyl)-4′-((4-(2-((6-((2-(2,6-dioxopiperidine-3-yl)-1,3-dioxoisoindoline-4-yl)amino)hexyl)amino)-2-oxoethyl)piperazine-1-yl)methyl)-5-(ethyl(tetrahydro-2H-pyran-4-yl)amino)-4-methyl-[1,1′-biphenyl]-3-carboxamide]			B (50-75%)	61.64		
CCN(c1cc(-c2ccc(CN3CCN(CC(=O)NCCCOCCOc4cccc5c4C(=O)N(C4CCC(=O)NC4=O)C5=O)CC3)cc2)cc(C(=O)NCc2c(C)cc(C)[nH]c2=O)c1C)C1CCOCC1 (centres unmarked) [Example 17, N-((4,6-dimethyl-2-oxo-1,2-dihydropyridine-3-yl)methyl)-4′-((4-(2-((3-(2-((2-(2,6-dioxopiperidine-3-yl)-1,3-dioxoisoindoline-4-yl)oxy)ethoxy)propyl)amino)-2-oxoethyl)piperazine-1-yl)methyl)-5-(ethyl(tetrahydro-2H-pyran-4-yl)amino)-4-methyl-[1,1′-biphenyl]-3-carboxamide]	3.25	D (key: A: >75%; B: 50-75%; C: 25-50%; D: <25%)				
CCN(c1cc(-c2ccc(CN3CCN(CC(=O)NCCCCNc4cccc5c4C(=O)N(C4CCC(=O)NC4=O)C5=O)CC3)cc2)cc(C(=O)NCc2c(C)cc(C)[nH]c2=O)c1C)C1CCOCC1 (centres unmarked) [Example 3, N-((4,6-dimethyl-2-oxo-1,2-dihydropyridine-3-yl)methyl)-4′-((4-(2-((4-((2-(2,6-dioxopiperidine-3-yl)-1,3-dioxoisoindoline-4-yl)amino)butyl)amino)-2-oxoethyl)piperazine-1-yl)methyl)-5-(ethyl(tetrahydro-2H-pyran-4-yl)amino)-4-methyl-[1,1′-biphenyl]-3-carboxamide]			D (<25%)	13.61		
CCN(c1cc(-c2ccc(CN3CCN(CCNCCCCCCNc4cccc5c4C(=O)N(C4CCC(=O)NC4=O)C5=O)CC3)cc2)cc(C(=O)NCc2c(C)cc(C)[nH]c2=O)c1C)C1CCOCC1 (centres unmarked) [Example 21, N-((4,6-dimethyl-2-oxo-1,2-dihydropyridine-3-yl)methyl)-4′-((4-(2-((6-((2-(2,6-dioxopiperidine-3-yl)-1,3-dioxoisoindoline-4-yl)amino)hexyl)amino)ethyl)piperazine-1-yl)methyl)-5-(ethyl(tetrahydro-2H-pyran-4-yl)amino)-4-methyl-[1,1′-biphenyl]-3-carboxamide]			A (>75%)	83.09	confirming the EZH2 proteolytic effect	excellent effects
CCN(c1cc(-c2ccc(CN3CCN(CC(=O)N4CC5(CN(CCCCNc6cccc7c6C(=O)N(C6CCC(=O)NC6=O)C7=O)C5)C4)CC3)cc2)cc(C(=O)NCc2c(C)cc(C)[nH]c2=O)c1C)C1CCOCC1 (centres unmarked) [Example 35, N-((4,6-dimethyl-2-oxo-1,2-dihydropyridine-3-yl)methyl)-4′-((4-(2-(6-(4-((2-(2,6-dioxopiperidine-3-yl)-1,3-dioxoisoindoline-4-yl)amino)butyl)-2,6-diazaspiro[3.3]heptane-2-yl)-2-oxoethyl)piperazine-1-yl)methyl)-5-(ethyl(tetrahydro-2H-pyran-4-yl)amino)-4-methyl-[1,1′-biphenyl]-3-carboxamide]			D (<25%)	0		
CCN(c1cc(-c2ccc(CN3CCN(CC(=O)NCCCCCOCCCOCCC(=O)N[C@H](C(=O)N4C[C@H](O)C[C@H]4C(=O)NCc4ccc(-c5scnc5C)cc4)C(C)(C)C)CC3)cc2)cc(C(=O)NCc2c(C)cc(C)[nH]c2=O)c1C)C1CCOCC1 [Example 43, (2S,4R)-1-((S)-2-(tert-butyl)-19-(4-((3′-(((4,6-dimethyl-2-oxo-1,2-dihydropyridine-3-yl)methyl)carbamoyl)-5′-(ethyl(tetrahydro-2H-pyran-4-yl)amino)-4′-methyl-[1,1′-biphenyl]-4-yl)methyl)piperazine-1-yl)-4,18-dioxo-7,11-dioxa-3,17-diazanonadecanoyl)-4-hydroxy-N-(4-(4-methylthiazole-5-yl)benzyl)pyrrolidine-2-carboxamide]			B (50-75%)	67.12		
CCN(c1cc(-c2ccc(CN3CCN(CC(=O)N4CCC5(CCN(CCCCNc6cccc7c6C(=O)N(C6CCC(=O)NC6=O)C7=O)CC5)CC4)CC3)cc2)cc(C(=O)NCc2c(C)cc(C)[nH]c2=O)c1C)C1CCOCC1 (centres unmarked) [Example 33, N-((4,6-dimethyl-2-oxo-1,2-dihydropyridine-3-yl)methyl)-4′-((4-(2-(9-(4-((2-(2,6-dioxopiperidine-3-yl)-1,3-dioxoisoindoline-4-yl)amino)butyl)-3,9-diazaspiro[5.5]undecane-3-yl)-2-oxoethyl)piperazine-1-yl)methyl)-5-(ethyl(tetrahydro-2H-pyran-4-yl)amino)-4-methyl-[1,1′-biphenyl]-3-carboxamide]			A (>75%)	80.85	confirming the EZH2 proteolytic effect	excellent effects
CCN(c1cc(-c2ccc(CN3CCN(CC(=O)NCCCCCOCCCOCC(=O)Nc4cccc5c4C(=O)N(C4CCC(=O)NC4=O)C5=O)CC3)cc2)cc(C(=O)NCc2c(C)cc(C)[nH]c2=O)c1C)C1CCOCC1 (centres unmarked) [Example 28, N-((4,6-dimethyl-2-oxo-1,2-dihydropyridine-3-yl)methyl)-4′-((4-(2-((5-(3-(2-((2-(2,6-dioxopiperidine-3-yl)-1,3-dioxoisoindoline-4-yl)amino)-2-oxoethoxy)propoxy)pentyl)amino)-2-oxoethyl)piperazine-1-yl)methyl)-5-(ethyl(tetrahydro-2H-pyran-4-yl)amino)-4-methyl-[1,1′-biphenyl]-3-carboxamide]			D (<25%)	0		
CCN(c1cc(-c2ccc(CN3CCN(CC(=O)NCCOCCCOc4cccc5c4C(=O)N(C4CCC(=O)NC4=O)C5=O)CC3)cc2)cc(C(=O)NCc2c(C)cc(C)[nH]c2=O)c1C)C1CCOCC1 (centres unmarked) [Example 18, N-((4,6-dimethyl-2-oxo-1,2-dihydropyridine-3-yl)methyl)-4′-((4-(2-((2-(3-((2-(2,6-dioxopiperidine-3-yl)-1,3-dioxoisoindoline-4-yl)oxy)propoxy)ethyl)amino)-2-oxoethyl)piperazine-1-yl)methyl)-5-(ethyl(tetrahydro-2H-pyran-4-yl)amino)-4-methyl-[1,1′-biphenyl]-3-carboxamide]			D (<25%)	16.74		
CCN(c1cc(-c2ccc(CN3CCN(CC(=O)NCCCOCCCOCC(=O)N[C@H](C(=O)N4C[C@H](O)C[C@H]4C(=O)NCc4ccc(-c5scnc5C)cc4)C(C)(C)C)CC3)cc2)cc(C(=O)NCc2c(C)cc(C)[nH]c2=O)c1C)C1CCOCC1 [Example 42, (2S,4R)-1-((S)-2-(tert-butyl)-16-(4-((3′-(((4,6-dimethyl-2-oxo-1,2-dihydropyridine-3-yl)methyl)carbamoyl)-5′-(ethyl(tetrahydro-2H-pyran-4-yl)amino)-4′-methyl-[1,1′-biphenyl]-4-yl)methyl)piperazine-1-yl)-4,15-dioxo-6,10-dioxa-3,14-diazahexadecanoyl)-4-hydroxy-N-(4-(4-methylthiazole-5-yl)benzyl)pyrrolidine-2-carboxamide]	0	D (key: A: >75%; B: 50-75%; C: 25-50%; D: <25%)				
CCN(c1cc(-c2ccc(CN3CCN(C(=O)c4cn(CCCCC(=O)N[C@H](C(=O)N5C[C@H](O)C[C@H]5C(=O)NCc5ccc(-c6scnc6C)cc5)C(C)(C)C)nn4)CC3)cc2)cc(C(=O)NCc2c(C)cc(C)[nH]c2=O)c1C)C1CCOCC1 [Example 48, (2S,4R)-1-((S)-2-(5-(4-(4-((3′-(((4,6-dimethyl-2-oxo-1,2-dihydropyridine-3-yl)methyl)carbamoyl)-5′-(ethyl(tetrahydro-2H-pyran-4-yl)amino)-4′-methyl-[1,1′-biphenyl]-4-yl)methyl)piperazine-1-carbonyl)-1H-1,2,3-triazole-1-yl)pentanamido)-3,3-dimethylbutanoyl)-4-hydroxy-N-(4-(4-methylthiazole-5-yl)benzyl)pyrrolidine-2-carboxamide]			D (<25%)	5.74		excellent effects
